US7989464B2, “mGluR1 antagonists as therapeutic agents” (Schering Corporation, priority 2004, dated 2011)

Molecular target: T1, hmGluR1 receptor (Homo sapiens, UniProt Q13255)
T1 construct: expressed in transfected cells
Experiment: IC50 determination: intracellular calcium mobilization (FLIPR) upon Quisqualate stimulation in CHO cells stably expressing hmGluR1
Format: cell-based
Conditions: against Quisqualate 1 μM (EC80), FLIPR calcium mobilization, read-out: IC50 Class
In short: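 CHO cells stably expressing hmGluR1 were kept overnight in DMEM high glucose with GPT and 1 mM pyruvate, then loaded 2 h with Calcium 3 dye.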

T1 sequence (Q13255 19-1194): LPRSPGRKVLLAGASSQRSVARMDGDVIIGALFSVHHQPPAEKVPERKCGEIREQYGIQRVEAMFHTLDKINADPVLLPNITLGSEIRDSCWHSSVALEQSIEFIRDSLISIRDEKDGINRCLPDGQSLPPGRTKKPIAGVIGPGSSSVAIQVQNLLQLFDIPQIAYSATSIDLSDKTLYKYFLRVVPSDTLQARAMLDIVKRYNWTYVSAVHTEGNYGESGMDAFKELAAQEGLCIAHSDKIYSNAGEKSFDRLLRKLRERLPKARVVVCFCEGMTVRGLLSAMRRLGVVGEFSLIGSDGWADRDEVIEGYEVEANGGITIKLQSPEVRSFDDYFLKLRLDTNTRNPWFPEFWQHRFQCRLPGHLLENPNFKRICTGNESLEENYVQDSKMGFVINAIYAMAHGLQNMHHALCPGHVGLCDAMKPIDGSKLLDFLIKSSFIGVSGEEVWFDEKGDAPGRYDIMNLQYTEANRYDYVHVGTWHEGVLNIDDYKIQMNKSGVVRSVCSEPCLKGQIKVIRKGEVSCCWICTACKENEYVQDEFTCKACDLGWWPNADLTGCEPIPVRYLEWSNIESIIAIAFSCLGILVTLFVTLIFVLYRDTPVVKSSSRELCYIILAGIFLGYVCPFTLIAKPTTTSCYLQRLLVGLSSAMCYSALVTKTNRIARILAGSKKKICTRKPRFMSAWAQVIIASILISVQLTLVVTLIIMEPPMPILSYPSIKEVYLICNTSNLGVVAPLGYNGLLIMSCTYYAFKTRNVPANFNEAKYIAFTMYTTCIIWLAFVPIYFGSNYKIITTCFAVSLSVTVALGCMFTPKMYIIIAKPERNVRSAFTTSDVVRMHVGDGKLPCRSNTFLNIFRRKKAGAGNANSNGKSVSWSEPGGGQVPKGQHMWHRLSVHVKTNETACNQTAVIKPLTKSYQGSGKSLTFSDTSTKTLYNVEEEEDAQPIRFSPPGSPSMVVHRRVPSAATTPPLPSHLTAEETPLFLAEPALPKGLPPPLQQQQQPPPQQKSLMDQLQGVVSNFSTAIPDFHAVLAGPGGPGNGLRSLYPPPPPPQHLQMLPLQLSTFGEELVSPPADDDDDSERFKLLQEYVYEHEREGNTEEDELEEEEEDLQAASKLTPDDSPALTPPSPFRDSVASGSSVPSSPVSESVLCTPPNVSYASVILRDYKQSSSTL

Row | SMILES | IC50
1 | CCN(C)c1ccnc2sc3c(=O)n(-c4ccc(OC)cc4F)cnc3c12 [28BW] | < 50 nM
2 | O=c1c2sc3nccc(C4CC4)c3c2ncn1-c1ccc(Cl)cc1 [compound 187] | < 50 nM
3 | CNc1c(C#N)cnc2sc3c(=O)n(-c4ccc(Cl)cc4)cnc3c12 [compound 189] | 50 to 150 nM
4 | C=CCNc1ccnc2sc3c(=O)n(-c4ccc(F)cc4)cnc3c12 [28EC] | < 50 nM
5 | Cc1ccc(-n2cnc3c(sc4nc(O)cc(N(C)C)c43)c2=O)cc1 [172A] | < 50 nM
6 | O=c1c2sc3nccc(N4CCC[C@@H]4CO)c3c2ncn1-c1ccc(Cl)cc1 [28GI] | > 1000 nM
7 | COc1ccc(-n2cnc3c(sc4nccc(Cl)c43)c2=O)cc1 [compound 195] | 150 to 1000 nM
8 | COc1ccc(-n2cnc3c(sc4nccc(OC)c43)c2=O)c(F)c1 [25E] | > 1000 nM
9 | COc1ccc(-n2cnc3c(sc4nc(C)nc(N)c43)c2=O)cc1 [95EU] | 150 to 1000 nM
10 | O=c1c2sc3nccc(NC4CC4)c3c2ncn1-c1ccc(C2CC2)cc1 [137I] | 150 to 1000 nM
11 | CN(C)c1ccnc2sc3c(=O)n(-c4ccncc4)cnc3c12 [28EE] | 150 to 1000 nM
12 | CN(C)c1cccc2sc3c(=O)n(-c4ccccc4Cl)cnc3c12 [103G] | > 1000 nM
13 | COCCn1cnc2c(sc3ncnc(NC4CC4)c32)c1=O [95EC] | > 1000 nM
14 | C=CCc1cnc2sc3c(=O)n(-c4ccc(Cl)cc4)cnc3c2c1N [178B] | < 50 nM
15 | COCCCNc1ccnc2sc3c(=O)n(-c4ccc(OC)cc4)cnc3c12 [28HL] | < 50 nM
16 | COCCCNc1ccnc2sc3c(=O)n(-c4ccc(Br)cc4)cnc3c12 [28GR] | < 50 nM
17 | C=C(C)CNc1ncnc2sc3c(=O)n(-c4ccc(C)cc4)cnc3c12 [95EY] | < 50 nM
18 | Cc1ccc(-n2cnc3c(sc4nc(NS(C)(=O)=O)cc(N(C)C)c43)c2=O)cc1 [28FL] | 150 to 1000 nM
19 | C=C(C)CNc1ncnc2sc3c(=O)n(-c4ccc(F)cc4)cnc3c12 [95FI] | < 50 nM
20 | O=c1c2sc3nccc(CC4CC4)c3c2ncn1-c1ccc(Cl)cc1 [compound 179] | 150 to 1000 nM
21 | Cc1ccc(-n2cnc3c(sc4ncc(C(=O)N(C)C)cc43)c2=O)cc1 [205A] | > 1000 nM
22 | C=C(C)CNc1ncnc2sc3c(=O)n(-c4ccncc4)cnc3c12 [95FJ] | 150 to 1000 nM
23 | COCCn1cnc2c(sc3ncnc(NCC(F)(F)F)c32)c1=O [95DY] | > 1000 nM
24 | CN(c1ncnc2sc3c(=O)n(-c4ccc(Br)cc4)cnc3c12)C1CC1 [95DV] | < 50 nM

Row | SMILES | IC50
25 | COc1ccc(-n2cnc3c(sc4nc(Cl)cc(N(C)C)c43)c2=O)cc1 [57C] | < 50 nM
26 | CNc1ccnc2sc3c(=O)n(-c4ccc5c(c4)OCCO5)cnc3c12 [28BZ] | < 50 nM
27 | CNc1c(Cl)cnc2sc3c(=O)n(-c4ccc(OC)cc4)cnc3c12 [compound 198] | < 50 nM
28 | COc1ccc(-n2cnc3c(sc4ncc(C#N)c(N)c43)c2=O)cc1 [compound 194] | 150 to 1000 nM
29 | CCNc1nncc2sc3c(=O)n(-c4ccc(C)cc4)cnc3c12 [167I] | 150 to 1000 nM
30 | CCNc1ncnc2sc3c(=O)n(-c4ccc(OC)c(F)c4)cnc3c12 [95BL] | < 50 nM
31 | COc1ccc(-n2cnc3c(sc4nc(N)cc(N)c43)c2=O)cc1 [59H] | < 50 nM
32 | C=CCNc1ncnc2sc3c(=O)n(-c4ccc(Cl)cc4)cnc3c12 [95BP] | < 50 nM
33 | Cc1ccc(-n2cnc3c(sc4ncc(C(N)=O)cc43)c2=O)cc1 [205C] | 150 to 1000 nM
34 | COc1ccc(-n2cnc3c(sc4nccc(NC5CC5)c43)c2=O)cc1Cl [131K] | > 1000 nM
35 | CCNc1ccnc2sc3c(=O)n(-c4ccc5c(c4)CCO5)cnc3c12 [28BQ] | < 50 nM
36 | Cc1ccc(-n2cnc3c(sc4nccc(NN)c43)c2=O)cc1 [28DK] | 150 to 1000 nM
37 | Cc1ccc(-n2cnc3c(sc4nccc(NC5CCCCC5)c43)c2=O)cc1 [28DF] | > 1000 nM
38 | O=c1c2sc3ncnc(NC4CC4)c3c2ncn1-c1ccc2ncsc2c1 [95AZ] | < 50 nM
39 | Cc1ccc(-n2cnc3c(sc4ncnc(NCCCO)c43)c2=O)cc1 [95DL] | < 50 nM
40 | O=c1c2sc3nccc(NCCCO)c3c2ncn1-c1ccc2c(c1)OCCO2 [28CI] | < 50 nM
41 | C=CCNc1ncnc2sc3c(=O)n(-c4ccc(OC)cc4)cnc3c12 [95GP] | < 50 nM
42 | O=c1c2sc3ncnc(NC4CC4)c3c2ncn1-c1ccc2scnc2c1 [95BA] | < 50 nM
43 | CN(CCO)c1ccnc2sc3c(=O)n(-c4ccc5c(c4)CCO5)cnc3c12 [28CL] | < 50 nM
44 | O=c1c2sc3ncnc(NC4CC4)c3c2ncn1-c1ccc(Br)cc1 [95AU] | < 50 nM
45 | Cc1ccc(-n2cnc3c(sc4nccc(NCC(C)(C)C)c43)c2=O)cc1 [28ES] | > 1000 nM
46 | CCN(C)c1ccnc2sc3c(=O)n(-c4ccc(OC)c(F)c4)cnc3c12 [28IA] | < 50 nM
47 | C=CCNc1ccnc2sc3c(=O)n(-c4ccc(OC)c(F)c4)cnc3c12 [28DT] | < 50 nM

Same assay, conditions: against Quisqualate 1 μM (EC80), FLIPR calcium mobilization, read-out: mGluR1 IC50

Row | SMILES | IC50
48 | C=CCc1cnc2sc3c(=O)n(-c4ccc(Cl)cc4)cnc3c2c1N [178B] | 1.46 nM
49 | CN(c1ncnc2sc3c(=O)n(-c4ccc(Br)cc4)cnc3c12)C1CC1 [95DV] | 1.94 nM
50 | CN(C)c1ccnc2sc3c(=O)n(-c4ccc(Br)c(F)c4)cnc3c12 [7DV] | 1.71 nM
51 | C=CCNc1ncnc2sc3c(=O)n(-c4ccc(Cl)cc4)cnc3c12 [95BP] | 1.31 nM
52 | CCNc1ccnc2sc3c(=O)n(-c4ccc5c(c4)CCO5)cnc3c12 [28BQ] | 1.57 nM
53 | O=c1c2sc3ncnc(NC4CC4)c3c2ncn1-c1ccc(Br)cc1 [95AU] | 1.37 nM

Same assay, conditions: against Quisqualate 1 μM (EC80), class symbols, read-out: mGIuR 1 IC50

Row | SMILES | IC50
54 | CN(C)c1cncc2sc3c(=O)n(-c4ccccc4)cnc3c12 [37D] | 150 to 1000 nM
55 | CN(C)c1ccnc2sc3c(=O)n(CCN4CCCCC4)cnc3c12 [15O] | > 1000 nM
56 | COCCNc1ccnc2sc3c(=O)n(-c4ccc(C)cc4)cnc3c12 [28AZ] | < 50 nM
57 | COc1cccc(-n2cnc3c(sc4nccc(N(C)C)c43)c2=O)c1 [7AA] | < 50 nM
58 | CN(C)c1ccnc2sc3c(=O)n(-c4ccc(C#N)cc4)cnc3c12 [7K] | < 50 nM
59 | COc1cc(N(C)C)c2c(n1)sc1c(=O)n(-c3ccc(C)cc3)cnc12 [compound 58] | < 50 nM
60 | CN(C)c1ccnc2sc3c(=O)n(Cc4ccccc4)cnc3c12 [7C] | 50 to 150 nM
61 | CCOC(=O)CSc1nc2c(sc3nc(C)cc(C)c32)c(=O)n1-c1ccc(Cl)cc1 [P-7] | 150 to 1000 nM
62 | CCc1ccnc2sc3c(=O)n(C4CCCCC4)cnc3c12 [29C] | 50 to 150 nM
63 | CN(C)c1ccnc2sc3c(=O)n(Cc4ccc(Cl)cc4)cnc3c12 [7I] | > 1000 nM
64 | O=c1c2sc3nccc(C4CCCC4)c3c2ncn1C1CCCCC1 [29B] | > 1000 nM
65 | CCCN(C)c1ccnc2sc3c(=O)n(-c4ccc(OC)cc4)cnc3c12 [28AO] | < 50 nM
66 | O=C(Nc1ccnc2sc3c(=O)n(C4CCCCC4)cnc3c12)C1CCC1 [73D] | > 1000 nM
67 | COCCn1cnc2c(sc3nccc(N(C)C)c32)c1=O [15D] | > 1000 nM
68 | Cc1nc2cc(-n3cnc4c(sc5nccc(N(C)C)c54)c3=O)ccc2o1 [7BU] | > 1000 nM
69 | CCN(C)c1ccnc2sc3c(=O)n(-c4ccccc4)c(C)nc3c12 [113D] | < 50 nM
70 | COc1ccc(-n2cnc3c(sc4nccc(N(C)C)c43)c2=O)cc1OC [7AD] | > 1000 nM
71 | Cc1ccc(-n2cnc3c(sc4nccc(NCC5CC5)c43)c2=O)cc1 [28AY] | 150 to 1000 nM
72 | O=c1c2sc3ncccc3c2ncn1-c1ccccc1 [compound 11] | > 1000 nM
73 | CN(C)c1ccnc2sc3c(=O)n(NC(=O)C4CC4)c(C4CC4)nc3c12 [65C] | > 1000 nM
74 | CCCCc1nc2c(sc3nccc(N(C)C)c32)c(=O)n1-c1ccc(OC)cc1 [116G] | 150 to 1000 nM
75 | COc1cc(OC)cc(-n2cnc3c(sc4nccc(N(C)C)c43)c2=O)c1 [7AX] | < 50 nM
76 | CN(C)c1ccnc2sc3c(=O)n(C4CCC(C(C)(C)C)CC4)cnc3c12 (stereo not shown) [15M] | > 1000 nM
77 | CN(C)c1ccnc2sc3c(=O)n(C(C)(C)C)cnc3c12 [15P] | 150 to 1000 nM
78 | Cc1cc(N(C)C)c2c(n1)sc1c(=O)n(-c3ccc4c(c3)CCO4)cnc12 [7CN] | 50 to 150 nM

Row | SMILES | IC50
79 | CN(C)c1ccnc2sc3c(=O)n(N4CCCCCC4)cnc3c12 [60D] | < 50 nM
80 | CN(C)c1ccnc2sc3c(=O)n(-c4ccc5[nH]nnc5c4)cnc3c12 [7AO] | 150 to 1000 nM
81 | O=c1c2sc3nccc(N4CCNCC4)c3c2ncn1C1CCCCC1 [28U] | > 1000 nM
82 | CN(C)c1cc(N2CCCC2)nc2sc3c(=O)n(C4CCCCC4)cnc3c12 [compound 85] | > 1000 nM
83 | CN(C)c1cccc2sc3c(=O)n(-c4ccc(Cl)cc4)cnc3c12 [103A] | 50 to 150 nM
84 | CN(C)c1ccnc2sc3c(=O)n(-c4ccc(Br)c(F)c4)cnc3c12 [7DV] | < 50 nM
85 | COc1ccc(-n2cnc3c(sc4cncc(N(C)C)c43)c2=O)cc1F [37G] | 150 to 1000 nM
86 | CN(C)c1ccnc2sc3c(=O)n(C4CCC4)cnc3c12 [15J] | 50 to 150 nM
87 | CCNc1ccnc2sc3c(=O)n(-c4ccc(C)cc4)c(C)nc3c12 [113H] | < 50 nM
88 | Cc1ccc(F)c(-n2cnc3c(sc4nccc(N(C)C)c43)c2=O)c1 [7DZ] | < 50 nM
89 | Cc1ccc(-n2cnc3c(sc4nccc(OCCO)c43)c2=O)cc1 [66E] | > 1000 nM
90 | CN(C)c1ccnc2sc3c(=O)n(C4CCCC4)cnc3c12 [7W] | < 50 nM
91 | CC#CCNc1ccnc2sc3c(=O)n(-c4ccc(C)cc4)cnc3c12 [28AD] | 50 to 150 nM
92 | COc1ccc(-n2cnc3c(sc4nccc(N)c43)c2=O)cc1 [72C] | < 50 nM
93 | COc1ccc(-n2cnc3c(sc4nccc(NC5CCCCC5)c43)c2=O)cc1 [28E] | > 1000 nM
94 | Cc1noc(-n2cnc3c(sc4nccc(N(C)C)c43)c2=O)c1C [15AD] | 50 to 150 nM
95 | COc1ccc(-n2cnc3c4c(N(C)C)ccnc4n(C)c3c2=O)cc1 [134B] | 150 to 1000 nM
96 | O=c1c2sc3nccc(N4CCCCC4)c3c2ncn1C1CCCCC1 [28L] | > 1000 nM
97 | CSc1ccc(-n2cnc3c(sc4nc(C)cc(N(C)C)c43)c2=O)cc1 [7DA] | 150 to 1000 nM
98 | CN(C)c1ccnc2sc3c(=O)n(N4CCCC4)cnc3c12 [60I] | 50 to 150 nM
99 | O=c1c2sc3nc(Cl)ccc3c2ncn1-c1ccccc1 [compound 14] | > 1000 nM
100 | CN(C)c1ccnc2sc3c(=O)n(-c4ccc(OC(F)F)cc4)cnc3c12 [7Z] | < 50 nM
101 | O=c1c2sc3nccc(N4CCC4)c3c2ncn1C1CCCCC1 [28V] | 150 to 1000 nM
102 | CN(C)c1c(Br)cnc2sc3c(=O)n(C4CCCCC4)cnc3c12 [compound 43] | 150 to 1000 nM
103 | CN(C)c1ccnc2sc3c(=O)n(-c4ccc(Br)cc4F)cnc3c12 [7DU] | < 50 nM
